Experimental data as given in US20210085640A1, “ACYLATED CATECHIN POLYPHENOLS AND METHODS OF THEIR USE FOR THE TREATMENT OF CANCER” (Flagship Pioneering Innovations V, Inc., priority 2018, published 2021).

Experiments:
Assay type in all cases: cell-based
A-431 skin cancer cells = test: Cancer cell survival (CellTiter-Glo), A-431; design: Cell survival at given concentration: unit not given here; settings: A-431 cells, 72 h
Method: (§1) The cells were prepared as follows. Cells were harvested during logarithmic growth, counted, and adjusted to 4.44×10^4 cells/mL with culture media. 90 μL of suspended cells were added to wells of 96-well plates for a final cell count of 4×10^3 cells/well. The plates were incubated overnight at 37 C with 5% CO2 overnight.
(§2) The test compounds were assayed as follows. Compound solutions were mixed at 10× final concentrations in cell media: 1 μM-10 mM (fatty acids) or 100 nM-1 mM (all other compounds). […] of solution was added to each well of cells in triplicate for each concentration. Well plates were incubated for 72 h at 37 C with 5% CO2 and then assayed with CellTiter-Glo by adding 50 μL of CTG solution to each well. Cells were lysed by shaking on an orbital shaker for 5 min. Plates were incubated at room temperature for 20 min and then each well's luminescence was measured. The surviving percentage of cells was determined as:
(§3) Survival %=(LumTest article−LumMedium control)/(LumNone treated−LumMedium control)[…]
(§4) Cytotoxicity was assessed at nine concentration levels for each compound and the 50% inhibition concentration (IC50) determined for each compound.

[1] = tested on: PC-3 prostate cancer cells; test: Cancer cell survival (CellTiter-Glo), PC-3; settings: PC-3 cells, 72 h
Method: as §1, §2, §3, §4

MCF7 breast cancer cells = test: Cancer cell survival (CellTiter-Glo), MCF7; settings: 72 h
Method: as §1, §2, §3, §4

AGS stomach cancer cells = test: Cancer cell survival (CellTiter-Glo), AGS; design: Cell survival at given concentration: unit not given here
Method: as §1, §2, §3, §4

[2] = tested on: Daudi lymphoma cancer cells; test: Cancer cell survival (CellTiter-Glo), Daudi; settings: 72 h
Method: as §1, §2, §3
Activity was assessed at nine concentration levels for each compound and the 50% inhibition concentration (IC50) determined for each compound.

[3] = tested on: HCT 116 colorectal cancer cells; test: Cancer cell survival (CellTiter-Glo), HCT 116; settings: HCT 116 cells, 72 h
Method: as §1, §2, §3, §4

A549 lung cancer cells = test: Cancer cell survival (CellTiter-Glo), A549; settings: 72 h
Method: as §1, §2, §3, §4

T24 bladder cancer cells = test: Cancer cell survival (CellTiter-Glo), T24; settings: 72 h
Method: as §1, §2, §3
Efficacy was assessed at nine concentration levels for each compound and the 50% inhibition concentration (IC50) determined for each compound.

## CC(O)CC(=O)O (stereo not drawn) [beta-hydroxybutyrate]
A-431 skin cancer cells; 1 μM, Table 9.2
  Cell survival at given concentration: 1.01
A-431 skin cancer cells; 3 μM, Table 9.2
  Cell survival at given concentration: 1.02
A-431 skin cancer cells; 10 μM, Table 9.2
  Cell survival at given concentration: 1.03
A-431 skin cancer cells; 32 μM, Table 9.2
  Cell survival at given concentration: 1.03
A-431 skin cancer cells; 100 μM, Table 9.2
  Cell survival at given concentration: 1.03
A-431 skin cancer cells; 317 μM
  Cell survival at given concentration: 1.05
A-431 skin cancer cells; 1 mM
  Cell survival at given concentration: 1.05
A-431 skin cancer cells; 3 mM
  Cell survival at given concentration: 1.03
A-431 skin cancer cells; 10 mM
  Cell survival at given concentration: 1.01
[1]; 1 μM, Table 8.2
  Cell survival at given concentration: 1.01
[1]; 3 μM, Table 8.2
  Cell survival at given concentration: 1.00
[1]; 10 μM, Table 8.2
  Cell survival at given concentration: 1.01
[1]; 32 μM, Table 8.2
  Cell survival at given concentration: 1.03
[1]; 100 μM, Table 8.2
  Cell survival at given concentration: 1.03
[1]; 317 μM
  Cell survival at given concentration: 1.03
[1]; 1 mM
  Cell survival at given concentration: 1.01
[1]; 3 mM
  Cell survival at given concentration: 1.00
[1]; 10 mM
  Cell survival at given concentration: 0.97
MCF7 breast cancer cells; 1 μM, Table 5.2
  Cell survival at given concentration: 1.00
MCF7 breast cancer cells; 3 μM, Table 5.2
  Cell survival at given concentration: 1.00
MCF7 breast cancer cells; 10 μM, Table 5.2
  Cell survival at given concentration: 1.00
MCF7 breast cancer cells; 32 μM, Table 5.2
  Cell survival at given concentration: 1.01
MCF7 breast cancer cells; 100 μM, Table 5.2
  Cell survival at given concentration: 1.03
MCF7 breast cancer cells; 317 μM
  Cell survival at given concentration: 1.01
MCF7 breast cancer cells; 1 mM
  Cell survival at given concentration: 0.97
MCF7 breast cancer cells; 3 mM
  Cell survival at given concentration: 0.92
MCF7 breast cancer cells; 10 mM
  Cell survival at given concentration: 0.91
AGS stomach cancer cells; 1 μM, Table 10.2
  Cell survival at given concentration: 1.01
AGS stomach cancer cells; 3 μM, Table 10.2
  Cell survival at given concentration: 1.03
AGS stomach cancer cells; 10 μM, Table 10.2
  Cell survival at given concentration: 1.01
AGS stomach cancer cells; 32 μM, Table 10.2
  Cell survival at given concentration: 1.02
AGS stomach cancer cells; 100 μM, Table 10.2
  Cell survival at given concentration: 1.04
AGS stomach cancer cells; 317 μM
  Cell survival at given concentration: 1.03
AGS stomach cancer cells; 1 mM
  Cell survival at given concentration: 1.04
AGS stomach cancer cells; 3 mM
  Cell survival at given concentration: 1.03
AGS stomach cancer cells; 10 mM
  Cell survival at given concentration: 1.00
[2]; 1 μM, Table 4.2
  Cell survival at given concentration: 1.01
[2]; 3 μM, Table 4.2
  Cell survival at given concentration: 0.99
[2]; 10 μM, Table 4.2
  Cell survival at given concentration: 0.98
[2]; 32 μM, Table 4.2
  Cell survival at given concentration: 0.98
[2]; 100 μM, Table 4.2
  Cell survival at given concentration: 1.02
[2]; 317 μM
  Cell survival at given concentration: 0.99
[2]; 1 mM
  Cell survival at given concentration: 0.99
[2]; 3 mM
  Cell survival at given concentration: 0.96
[2]; 10 mM
  Cell survival at given concentration: 0.91
[3]; 1 μM, Table 6.2
  Cell survival at given concentration: 0.98
[3]; 3 μM, Table 6.2
  Cell survival at given concentration: 1.00
[3]; 10 μM, Table 6.2
  Cell survival at given concentration: 0.99
[3]; 32 μM, Table 6.2
  Cell survival at given concentration: 0.98
[3]; 100 μM, Table 6.2
  Cell survival at given concentration: 1.00
[3]; 317 μM
  Cell survival at given concentration: 1.03
[3]; 1 mM
  Cell survival at given concentration: 1.01
[3]; 3 mM
  Cell survival at given concentration: 0.96
[3]; 10 mM
  Cell survival at given concentration: 0.90
A549 lung cancer cells; 1 μM, Table 7.2
  Cell survival at given concentration: 1.00
A549 lung cancer cells; 3 μM, Table 7.2
  Cell survival at given concentration: 0.99
A549 lung cancer cells; 10 μM, Table 7.2
  Cell survival at given concentration: 1.01
A549 lung cancer cells; 32 μM, Table 7.2
  Cell survival at given concentration: 1.02
A549 lung cancer cells; 100 μM, Table 7.2
  Cell survival at given concentration: 1.05
A549 lung cancer cells; 317 μM
  Cell survival at given concentration: 1.01
A549 lung cancer cells; 1 mM
  Cell survival at given concentration: 1.01
A549 lung cancer cells; 3 mM
  Cell survival at given concentration: 1.01
A549 lung cancer cells; 10 mM
  Cell survival at given concentration: 0.98
A549 lung cancer cells; Table 7.2
  IC50: > 10 mM
T24 bladder cancer cells; 1 μM, Table 3.2
  Cell survival at given concentration: 0.97
T24 bladder cancer cells; 3 μM, Table 3.2
  Cell survival at given concentration: 1.00
T24 bladder cancer cells; 10 μM, Table 3.2
  Cell survival at given concentration: 0.98
T24 bladder cancer cells; 32 μM, Table 3.2
  Cell survival at given concentration: 0.95
T24 bladder cancer cells; 100 μM, Table 3.2
  Cell survival at given concentration: 0.96
T24 bladder cancer cells; 317 μM
  Cell survival at given concentration: 1.02
T24 bladder cancer cells; 1 mM
  Cell survival at given concentration: 0.99
T24 bladder cancer cells; 3 mM
  Cell survival at given concentration: 0.99
T24 bladder cancer cells; 10 mM
  Cell survival at given concentration: 1.00
